Marks after values point to notes of the source that are not given here.
Legend:
S. aureus Smith = experiment: Acute infection model in mice (intraperitoneal infection); type: in vivo
Experimental: The efficacy of lysostaphin was compared to that of vancomycin in an acute infection model in mice. S. aureus Smith was cultured overnight, with moderate agitation, in Veal Infusion broth (Difco) and diluted in broth containing 5% hog gastric mucin (Difco). Male Swiss~Webster mice (Taconic Farms, Germantown, NY) weighing approximately 20 grams were infected intraperitoneally with 10^5-10^6 viable cells, approximately tenfold the inoculum that reproducibly killed all untreated animals within 48 h. There were six mice in each treatment group. Lysostaphin was administered intravenously (in 0.1 ml 5% dextrose for injection) or subcutaneously (in 0.2 ml), within 10 min of infection. Vancomycin was administered subcutaneously.

S. aureus strain AG461 = experiment: Time-kill experiment (Figure 1); type: cell-based, Staphylococcus aureus; details: vancomycin 2 and 16 µg/ml (one and eight times MIC); three hours of contact
Experimental: The bactericidal activity of lysostaphin against S. aureus was also studied by means of time-kill experiments. In one experiment of this type, S. aureus strain AG461, a methicillin-resistant clinical isolate from Genoa, Italy, was inoculated into Mueller-Hinton broth (Difco) and grown at 37°C with gentle shaking until it reached approximately 10^8 viable cells per ml (CFU/ml), as estimated from the absorbance of the culture at 600 nm. The culture was then diluted with fresh broth to approximately 10^6 CFU/ml and 5 ml aliquots were placed in several different flasks for exposure to different concentrations of antibacterial agents. Incubation was continued, with gentle shaking, at 37°C, and samples were withdrawn at intervals for determination of viable cells. Serial 10-fold dilutions of the samples were made in sterile saline (0.9% NaCl in distilled water) and duplicate 0.1 ml aliquots of appropriate dilutions were plated on Tryptic Soy agar plates (Remel) using the agar inclusion method. (In this method, the aliquot to be plated is added to 2.5 ml of top agar, which is mixed and poured onto a plate. Top agar consisted of molten Tryptic Soy agar (Difco) diluted 2-fold with Difco Tryptic Soy broth to give a final agar concentration of 0.75%, w/v.) The plates were incubated for 24-48 hours at 36°C and the colonies were counted manually. […]

[1] = test system: methicillin-resistant S. aureus strain (MRSA 27619); experiment: Experimental aortic valve endocarditis in rabbits; type: in vivo; details: vancomycin 30 mg/kg twice daily iv, three days
Experimental: Aortic valve endocarditis was established in New Zealand white rabbits weighing approximately 3 kg. Rabbits were anesthetized and the right carotid artery surgically exposed and cannulated with a polyethylene catheter which was advanced into the left ventricle of the heart. After at least 24 h, the rabbits were infected intravenously with 10^6-10^7 cells of a methicillin-resistant S. aureus strain (MRSA 27619). Twenty-four hours later, the animals were randomly assigned to different treatment groups: untreated control (9 rabbits); positive control, vancomycin 30 mg/kg twice daily (15); lysostaphin 5 mg/kg three times daily (11); lysostaphin 5 mg/kg once daily (10); lysostaphin 5 mg/kg once daily + vancomycin 30 mg/kg twice daily (11). Any rabbits whose infection was not confirmed by pre-treatment blood culture were eliminated.
All treatments were intravenous and were carried out for three days. The state of health of the rabbits was assessed at intervals. The rabbits were sacrificed 18 h after the last treatment. Aortic vegetations were removed and weighed and processed to determine the number of viable bacteria, expressed as log10CFU/gram. The limit of detection is 10^2 CFU/gram (log10CFU/gram=2.0). The mean titers of bacteria per gram were compared by one-way analysis of variance. The Student-Newman-Keuls test was used to adjust for multiple comparisons. […]

[2] = test system: methicillin-resistant VISA strain of S. aureus; experiment: Endocarditis in rabbits caused by a VISA strain; type: in vivo; details: vancomycin 30 mg/kg twice daily

CN[C@H](CC(C)C)C(=O)N[C@H]1C(=O)N[C@@H](CC(N)=O)C(=O)N[C@H]2C(=O)N[C@H]3C(=O)N[C@H](C(=O)N[C@H](C(=O)O)c4cc(O)cc(O)c4-c4cc3ccc4O)[C@H](O)c3ccc(c(Cl)c3)Oc3cc2cc(c3O[C@@H]2O[C@H](CO)[C@@H](O)[C@H](O)[C@H]2O[C@H]2C[C@](C)(N)[C@H](O)[C@H](C)O2)Oc2ccc(cc2Cl)[C@H]1O [vancomycin]
% survival (S. aureus Smith; 0.63 mg/kg sc): 0% | % survival (S. aureus Smith; 1.25 mg/kg sc): 83% | % survival (S. aureus Smith; 2.5 mg/kg sc): 100% | % survival (S. aureus Smith; 5 mg/kg sc): 100% | % survival (S. aureus Smith; Table 4 experiment, 0.63 mg/kg, route not given): 0% | % survival (S. aureus Smith; Table 4 experiment, 1.25 mg/kg, route not given): 83% | % survival (S. aureus Smith; Table 4 experiment, 2.5 mg/kg, route not given): 100% | bactericidal action (S. aureus strain AG461): very little killing of the bacteria | Mean log10CFU/gram of vegetation ± standard deviation [1]: 5.91 ± 1.67^a log10CFU/gram | Number of sterile vegetations /total animals treated [1]: 0/15 | CFU/g vegetation ([2]; expressed as log10 of the mean): 6.95 CFU/g vegetation | sterile/total vegetations [2]: 0/13
